Literature values, collected in US7393692B2, “SERS method for rapid pharmacokinetic analysis of drugs in saliva” (Real-Time Analyzers, Inc., priority 2004, dated 2008).

Assays:
[1] = patient dependent
[2] = target: T1, dihydropyrimidine dehydrogenase (DPD) (Homo sapiens, UniProt Q12882); conditions: patient with the normal amount of DPD
T1 construct: endogenous in cells; host or cells: human individuals / hypothetical cancer patients (in vivo metabolism)
T1 sequence (Q12882 4-1025): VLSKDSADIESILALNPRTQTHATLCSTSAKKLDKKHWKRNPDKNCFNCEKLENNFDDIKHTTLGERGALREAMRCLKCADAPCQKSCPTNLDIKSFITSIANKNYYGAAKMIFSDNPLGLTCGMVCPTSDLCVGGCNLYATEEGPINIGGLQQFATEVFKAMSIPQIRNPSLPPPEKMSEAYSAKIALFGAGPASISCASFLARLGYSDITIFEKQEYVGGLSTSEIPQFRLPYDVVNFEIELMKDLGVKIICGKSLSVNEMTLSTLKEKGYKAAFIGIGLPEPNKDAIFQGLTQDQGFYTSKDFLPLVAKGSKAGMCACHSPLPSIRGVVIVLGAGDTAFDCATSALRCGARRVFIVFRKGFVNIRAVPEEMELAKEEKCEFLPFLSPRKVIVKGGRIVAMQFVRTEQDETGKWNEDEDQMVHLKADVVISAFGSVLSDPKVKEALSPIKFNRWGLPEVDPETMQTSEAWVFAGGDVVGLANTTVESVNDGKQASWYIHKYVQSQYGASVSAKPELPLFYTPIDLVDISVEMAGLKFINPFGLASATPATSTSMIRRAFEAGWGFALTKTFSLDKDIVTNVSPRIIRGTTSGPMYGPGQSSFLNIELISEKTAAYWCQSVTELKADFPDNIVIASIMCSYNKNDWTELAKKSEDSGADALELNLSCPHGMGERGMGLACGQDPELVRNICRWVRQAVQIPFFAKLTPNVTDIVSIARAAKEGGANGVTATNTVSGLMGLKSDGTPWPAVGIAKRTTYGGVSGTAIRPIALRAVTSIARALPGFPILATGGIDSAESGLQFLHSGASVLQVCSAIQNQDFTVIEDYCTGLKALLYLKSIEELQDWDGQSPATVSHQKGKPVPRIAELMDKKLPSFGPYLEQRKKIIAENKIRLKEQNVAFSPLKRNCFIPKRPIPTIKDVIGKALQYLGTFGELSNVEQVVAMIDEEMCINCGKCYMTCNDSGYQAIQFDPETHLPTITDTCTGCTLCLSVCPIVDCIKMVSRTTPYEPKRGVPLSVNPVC

Compound: O=c1[nH]cc(F)c(=O)[nH]1 [5-FU, 5-fluorouracil]
- 5-FU concentration in saliva, maximum ([1]; closely matches plasma): 15 to 28 µg/mL
- 5-FU concentration in saliva, three hour minimum ([1]; three hour minimum): 0.1 µg/mL
- 5-FU metabolized to 5-FUH2 on average [2]: about 50%
